Laboratory results as given in patent US20240082181A1, “Method for Treating Blood Cancers” (Lantern Pharma Inc., priority 2021, published 2024).

Assays:
Assay type in all cases: cell-based
AML193 = test: Cell viability, Promega Celltiter Fluor (72 h); conditions: Homo sapiens; AML193, Acute Myeloid Leukemia, assay duration 72 hours; read-out: LP-284 IC50
Description: (§1) The sensitivity and selectivity of Compound 1 (with positive optical chirality) was assessed using a panel of human blood cell lines. The cell lines used in this Example are shown below and plotted in FIG. 1. The cells were inoculated into 96 well plates at various numbers of cells/well depending on the doubling time of the cell line for 24 hours. Then these cells were treated by Compound 1 at 5˜8 different doses and DMSO vehicle controls. After another 48 or 72 hour incubation, the number viable cells/wells were measured by the sulforhodamine B (SRB) assay (48 h) or the Promega Celltiter Fluor Cell Viability (72 h). IC50 values were then calculated based on normalized cell counts at different Compound 1 doses. Anti-proliferative activity was determined by cell viability measurements.

CA46 = test: Cell viability, Promega Celltiter Fluor (72 h); conditions: Homo sapiens; CA46, Burkitt's Lymphoma, assay duration 72 hours; read-out: LP-284 IC50
Description: as §1

JEKO1 = test: Cell viability, Promega Celltiter Fluor (72 h); conditions: Homo sapiens, JeKo-1; JEKO1, Mantle Cell Lymphoma, assay duration 72 hours; read-out: LP-284 IC50
Description: as §1

JVM2 = test: Cell viability, Promega Celltiter Fluor (72 h); conditions: Homo sapiens, JVM-2; JVM2, Mantle Cell Lymphoma, assay duration 72 hours; read-out: LP-284 IC50
Description: as §1

K562R = test: Cell viability, Promega Celltiter Fluor (72 h); conditions: Homo sapiens, K-562R, Chronic Myeloid Leukemia, assay duration 72 hours, read-out: LP-284 IC50
Description: as §1

K562 = test: Cell viability, Promega Celltiter Fluor (72 h); conditions: Homo sapiens; K562, Chronic Myeloid Leukemia, assay duration 72 hours; read-out: LP-284 IC50
Description: as §1

KU812 = test: Cell viability, Promega Celltiter Fluor (72 h); conditions: Homo sapiens; KU812, Chronic Myeloid Leukemia, assay duration 72 hours; read-out: LP-284 IC50
Description: as §1

MAVER1 = test: Cell viability, Promega Celltiter Fluor (72 h); conditions: Homo sapiens; MAVER1, Mantle Cell Lymphoma, assay duration 72 hours; read-out: LP-284 IC50
Description: as §1

MINO = test: Cell viability, Promega Celltiter Fluor (72 h); conditions: Homo sapiens, Mantle Cell Lymphoma, assay duration 72 hours, read-out: LP-284 IC50
Description: as §1

NCIH929 = test: Cell viability, Promega Celltiter Fluor (72 h); conditions: Homo sapiens, NCI-H929; NCIH929, Multiple Myeloma, assay duration 72 hours; read-out: LP-284 IC50
Description: as §1

REC1 = test: Cell viability, Promega Celltiter Fluor (72 h); conditions: Homo sapiens; REC1, Mantle Cell Lymphoma, assay duration 72 hours; read-out: LP-284 IC50
Description: as §1

REH = test: Cell viability, Promega Celltiter Fluor (72 h); conditions: Homo sapiens, Acute Lymphoblastic Leukemia, assay duration 72 hours, read-out: LP-284 IC50
Description: as §1

SUDHL6 = test: Cell viability, Promega Celltiter Fluor (72 h); conditions: Homo sapiens, SU-DHL-6; SUDHL6, Double-Hit Lymphoma, assay duration 72 hours; read-out: LP-284 IC50
Description: as §1

SUPB15 = test: Cell viability, Promega Celltiter Fluor (72 h); conditions: Homo sapiens, SUP-B15; SUPB15, Acute Lymphoblastic Leukemia, assay duration 72 hours; read-out: LP-284 IC50
Description: as §1

THP1 = test: Cell viability, Promega Celltiter Fluor (72 h); conditions: Homo sapiens, THP-1; THP1, Acute Myeloid Leukemia, assay duration 72 hours; read-out: LP-284 IC50
Description: as §1

U937 = test: Cell viability, Promega Celltiter Fluor (72 h); conditions: Homo sapiens, U-937; U937, Acute Myeloid Leukemia, assay duration 72 hours; read-out: LP-284 IC50
Description: as §1

Z138 = test: Cell viability, Promega Celltiter Fluor (72 h); conditions: Homo sapiens, Z-138; Z138, Mantle Cell Lymphoma, assay duration 72 hours; read-out: LP-284 IC50
Description: as §1

CCRFCEM = test: Cell viability, sulforhodamine B (SRB) assay (48 h); conditions: Homo sapiens, CCRF-CEM, Acute Lymphoblastic Leukemia, assay duration 48 hours, read-out: LP-284 IC50
Description: as §1

HL60TB = test: as above; conditions: Homo sapiens, HL-60, Acute Myeloid Leukemia, assay duration 48 hours, read-out: LP-284 IC50
Description: as §1

MOLT4 = test: as above; conditions: Homo sapiens, MOLT-4; MOLT4, Acute Lymphoblastic Leukemia, assay duration 48 hours; read-out: LP-284 IC50
Description: as §1

RPMI8226 = test: as above; conditions: Homo sapiens, RPMI-8226; RPMI8226, Multiple Myeloma, assay duration 48 hours; read-out: LP-284 IC50
Description: as §1

SR = test: as above; conditions: Homo sapiens, Anaplastic large cell lymphoma, assay duration 48 hours, read-out: LP-284 IC50
Description: as §1

CC1=C(CN(O)C(N)=O)C2=C(C)C3(CC3)[C@@](C)(O)C(=O)C2=C1 [LP-284, hydroxyureamethyl acylfulvene]
IC50 (AML193): 1800 nM
IC50 (CA46): 431 nM
IC50 (JEKO1): 263 nM
IC50 (JVM2): 343 nM
IC50 (K562R): 295 nM
IC50 (K562): 298 nM
IC50 (KU812): 488 nM
IC50 (MAVER1): 193 nM
IC50 (MINO): 88 nM
IC50 (NCIH929): 334 nM
IC50 (REC1): 794 nM
IC50 (REH): 114 nM
IC50 (SUDHL6): 449 nM
IC50 (SUPB15): 588 nM
IC50 (THP1): 1500 nM
IC50 (U937): 660 nM
IC50 (Z138): 370 nM
IC50 (CCRFCEM): 2220 nM
IC50 (HL60TB): 952 nM
IC50 (MOLT4): 9020 nM
IC50 (RPMI8226): 348 nM
IC50 (SR): 896 nM
